This is an account of results in patent US20100143477A1, “Methods and Compositions for Stimulating the Proliferation or Differentiation of Stem Cells with Substance Por an Analog Thereof” (Immuneregen Biosciences, Inc., priority 2007, published 2010).

Data set [1] relates to CFU-Mk, platelet precursors (human bone marrow mononuclear cells). The experiment in a line: Colony forming unit (CFU) assay (Example 6). Type of data set: cell-based. Conditions: for effect of antagonist on substance P enhanced platelet colony formation: in the presence of substance P. From the text:
(§1) As stem cells differentiate in response to growth factors, they form a colony of cells with distinct morphologies that can be visualized using a microscope. This study examined the formation of three different progenitor cell populations, erythrocytes, platelets and granulocytes/macrophages.
(§2) Bone marrow aspirates were obtained from three healthy donors between 18 and 35 years of age following appropriate guidelines and protocols. Bone marrow mononuclear cells were isolated using a Ficoll-Hypaque density gradient, separating red blood cells from the others. Cells from each donor were processed independently and used for setting up individual experiments to assess the effects, if any, of donor variability.
Cells (1×10^5) were plated in duplicate onto 35 mm tissue culture plates for each condition tested and set up as described in Rameshwar et al. 1993, Blood. 81:2, 391-398. Erythroid and granulocyte/macrophage cultures were plated using methylcellulose and megakaryocyte cultures (platelet precursors) used a collagen-based support (StemCell Technologies, Vancouver, Canada, catalogue #04973). […] CP 99,994 (Pfizer) was used as a neurokinin-1 receptor antagonist and SR 48968 (Sanofi) was used as a neurokinin-2 receptor antagonist.
Cultures were set up with limited cytokines and growth factors which would promote differentiation of one progenitor per plate.
Each compound was dissolved in endotoxin-free water to a final concentration of 0.1 mM. After reconstitution, the solutions were aliquoted into siliconized microcentrifuge tubes and exposed to nitrogen gas, eliminating oxygen in the head space of the enclosure. All aliquots were stored at −20° C. until use and used within one month of reconstitution. See, Rameshwar, et al. 1997, J. Immunol.
Cultures were incubated at 37° C. with 5% CO2 for approximately 14 days, after which colonies were manually enumerated using a microscope. […]

Data set [2] concerns human bone marrow-derived hematopoietic cell populations. As to the kind of experiment: CFC and iATP assays, all 7 cell populations (Example 3). Type of data set: cell-based. Conditions: most of populations; 14 days; up to 1 nM. The protocol:
The compound was dissolved in 1 ml of Iscove's Modified Dulbecco's Medium (IMDM) and a serial dose response prepared in single log doses so that the final dose in culture ranged from 1 nM to 1×10^−16 M. All working dilutions were performed in IMDM.
Starting with human bone marrow aspirate, the mononuclear cell (MNC) fraction was separated from the whole bone marrow using Ficoll-Paque density gradient centrifugation. […] The cell concentration was adjusted so that the final cell concentration in culture was 10,000 cells/well.
Human bone marrow MNC was dissolved in IMDM and cultured at a concentration of 10,000 cell/well in a CAMEO™-96 Master Mix (HemoGenix, Inc., Colorado Springs, Colo.). […]
Prior to processing all 96-well plates, the total colony counts/well were manually enumerated by microscopy. The mean, standard deviation and percent coefficient of variation was calculated for all groups, transposed and plotted. The intracellular ATP (iATP) concentration was measured after manual enumeration.
The output of the luminometer is non-standardized Relative Luminescence Units (RLU). […] This allowed the RLU values to be automatically calculated into standardized ATP (μM) units. For both the RLU and ATP values derived from each well, the luminometer software calculated the mean, standard deviation and percent coefficient of variation.

Data set [3] relates to human-derived hematopoietic cell populations. The experiment in a line: CFC assay, multi-donor study, all seven cell populations (Example 4). Type of data set: cell-based. Conditions: highest doses (up to 1 nM); three donors. On the procedure: Compound was dissolved in 1 ml of Iscove's Modified Dulbecco's Medium (IMDM) and a serial dose response was prepared in single log doses so that the final dose in culture ranged from 1 nanoMolar (nM) to 1×10^−16 M. All working dilutions were performed in IMDM. Cell cultures from each donor were started at different times and a fresh solution of Homspera® was prepared for each individual experiment.
Starting with human bone marrow aspirate, the mononuclear cell (MNC) fraction from each aspirate was separated from whole bone marrow using Ficoll-Paque density gradient centrifugation.
The colony-forming cell (CFC) assay was performed using optimal growth factor/cytokine concentrations. The reagents and conditions were similar to those used in Example 3, except that no ATP measurements were performed. The MNC fraction from each bone marrow donor was dissolved in IMDM and cultured at a concentration of 5,000 cells/well in a Culture Master Mix (HemoGenix, Inc., Colorado Springs, Colo.). […]
The mean, standard deviation and percent coefficient of variation was calculated for all groups, transposed and plotted as a function of donor. The percent from control values were calculated and also plotted as a function of donor. […]

The test system of data set [4] is BFU-E (human bone marrow mononuclear cells). As to the kind of experiment: Colony forming unit (CFU) assay (Example 6). Type of data set: cell-based. Conditions: approximately 14 days; FIG. 1.
Text: as §1, §2
(§3) Cells (1×10^5) were plated in duplicate onto 35 mm tissue culture plates for each condition tested and set up as described in Rameshwar et al. 1993, Blood. 81:2, 391-398. Erythroid and granulocyte/macrophage cultures were plated using methylcellulose and megakaryocyte cultures (platelet precursors) used a collagen-based support (StemCell Technologies, Vancouver, Canada, catalogue #04973). […] CP 99,994 (Pfizer) was used as a neurokinin-1 receptor antagonist and SR 48968 (Sanofi) was used as a neurokinin-2 receptor antagonist. […]

Data set [5] relates to CFU-E (human bone marrow mononuclear cells). The experiment in a line: Colony forming unit (CFU) assay (Example 6). Type of data set: cell-based. Conditions: approximately 14 days; FIG. 2.
Text: as §1, §2, §3

Data set [6] relates to neurokinin-1 (NK1) receptor; NK2 and NK3 receptors. Conditions: Tousignant et al. 1990; cited from earlier work.

For the compound `COc1ccccc1CN[C@H]1CCCN[C@H]1c1ccccc1` [CP-99,994], the “effect of antagonist on substance P enhanced platelet colony formation” value in data set [1] is “blocks the stimulatory activity of substance P”.
Turning to `CC(C)C[C@H](NC(=O)CN(C)C(=O)[C@H](Cc1ccccc1)NC(=O)[C@H](Cc1ccccc1)NC(=O)[C@H](CCC(N)=O)NC(=O)[C@H](CCC(N)=O)NC(=O)[C@@H]1CCCN1C(=O)[C@H](CCCCN)NC(=O)[C@@H]1CCCN1C(=O)[C@@H](N)CCCNC(=N)N)C(=O)N[C@@H](CCS(C)(=O)=O)C(N)=O` [Homspera®], the cytotoxicity entry in data set [2] is “apparent absence of distinct cytotoxicity”. Further, the toxicity entry in data set [3] is given as “no apparent toxicity”.
As to `CC(=O)NC1(c2ccccc2)CCN(CC[C@H](CN(C)C(=O)c2ccccc2)c2ccc(Cl)c(Cl)c2)CC1` [SR48968], the “effect of antagonist on substance P enhanced platelet colony formation” value in data set [1] is “no effect on substance P activity”.
RPKPQQFFGLM [substance P]: in data set [4], the “BFU-E colony formation, increase from control values” is on record as approximately 60%. In addition, the “CFU-E colony formation, enhancement from control values” in data set [5] is “about 70%”. Also, the “effective concentration, platelet precursors (CFU-Mk)” value in data set [1] is 10^−8 M. The neurokinin receptor specificity result in data set [6] is “can also activate the neurokinin-2 (NK2) and neurokinin-3 (NK3) receptors”.
